This is an account of results in publication PMC3214022, “Plasmodium falciparum Parasites Are Killed by a Transition State Analogue of Purine Nucleoside Phosphorylase in a Primate Animal Model” (PLoS ONE, 2011).

Each structure is given as a SMILES string. “And” between values parts separate entries of the source, which are not always exact repeats. Equal values may be shown once. Some results are limits rather than exact numbers.

The subject of data set [1] is P. falciparum-infected erythrocytes. Description: Metabolic labeling with [3H]inosine or [3H]hypoxanthine and HPLC analysis. To be noted: 10 µM BCX4945, 1 h labeling. The class given is cell-based, Plasmodium falciparum. The text has this: Samples were extracted with perchloric acid (PCA), neutralized and analyzed by HPLC as described.
Data set [2] has as its system purine salvage (hypoxanthine, inosine, adenosine, 2′-deoxyguanosine). Description: Purine metabolites in plasma and blood cells of treated Aotus monkeys (UPLC-MS/MS). The class given is in vivo, Aotus lemurinus lemurinus. How it is done: (§1) Samples from blood cells, plasma and media were extracted and analyzed in duplicate. […] Samples were incubated for 20 min at 4 °C and neutralized with 5 M KOH at 10∶1 (v/v, HClO4/KOH) for 20 min at 4 °C. Plates were centrifuged (10 min at 4,000 rpm, 4°C) and supernatants were filtered through a MultiScreen® Filter Plate with Ultracel®-10 Membrane (Millipore). Metabolite and inhibitor levels were quantified by UPLC/MS/MS using a Xevo TQ mass spectrometer (Waters). […] Quantitative determination was performed in ESI positive-ion mode using multiple-reaction monitoring (MRM) mode. The ESI capillary voltage was 0.3 kV, source temperature was set at 150 °C and desolvation temperature at 450 °C. Data acquisition and analysis were carried out by MassLynx V4.1 and QuanLynx software (Waters). The concentration of the metabolites was calculated by interpolation of the observed analyte/internal standard peak-area ratio with the corresponding calibration curve.
(§2) Laboratory bred Aotus lemurinus lemurinus monkeys (0.75–0.89 kg) were maintained as described. […] Blood samples were collected before the treatment started (t = 0), 0.05 h, 0.5 h, 1 h, 2 h, 6 h, 24 h, 48 h, and 6, 12 and 18 days after the first dose from each monkey and processed as described below. Pharmacokinetic parameters were calculated using PKSolver. For efficacy studies, Aotus monkeys were inoculated intravenously with 5×10^6 parasites of the FVO strain of P. falciparum in an approved treatment protocol. […] Parasitaemia was determined by Giemsa-stained thick blood smears prepared daily from the marginal ear vein [41]. Blood samples were collected from each monkey and transferred to tubes containing lithium heparin, centrifuged and both plasma and blood cells were frozen at −80 °C until analysis. Animals received a physical examination and blood chemistry profiles were monitored after treatment as described previously. Any monkey not responding appropriately to treatment was cured of its infection with mefloquine (40 mg kg^−1). […] The day of clearance is defined as the first of three consecutive days in which the thick blood films are parasite negative. The day of recrudescence is the first of three consecutive days of positive thick blood films after a period of clearance. Suppression is defined as a transient decrease in the parasite count post-treatment without clearance.

A short description of a further data set: in vivo. More on the design: species or system Aotus lemurinus lemurinus. As for the experimental part: as §1, §2
Data set [3] is described as follows: Weights, CBC and blood chemistry, Table S1 sheet PK (pharmacokinetic study). The class given is in vivo, Aotus lemurinus lemurinus. As for the experimental part:
as §2

[4] abbreviates: infected Aotus under BCX4945 treatment.

Turning to `Nc1nc2c(CN3CC(O)C(CO)C3)c[nH]c2c(=O)[nH]1` (stereo not drawn) [BCX4945, 4′-deaza-1′-aza-2′-deoxy-1′-(9-methylene)-Immucillin-G], the “[3H]hypoxanthine incorporation into purine derivatives” value in data set [1] is “continues at reduced levels”. Further, in data set [1] (schizont and trophozoite stages), the “[3H]inosine incorporation into the purine pool” value is “complete inhibition”. In addition, the “hypoxanthine in plasma throughout the treatment period” value in data set [2] (50 mg kg^−1 per dose twice a day) was 0.3 ± 0.2 µM. The “2′-deoxyguanosine levels in plasma and blood cells” value in data set [2] (BCX4945 treatment) was “increased”. Moreover, in data set [2] (setting [4]), the “hypoxanthine concentration in plasma and blood cells” value was “below 0.3 µM”. Moreover, the “inosine concentration in plasma and blood cells” value in data set [2] (setting [4]) was “above 50 µM”. The “hypoxanthine reappearing in the blood” value in data set [2] (infected animals, three days after the end of three-day oral treatment) was about 30 µM. The bioavailability (commonly the share of a dose that reaches the circulation, judged against a reference dose that is usually intravenous) in “in vivo” (Aotus lemurinus lemurinus) stood at 28%. The molecule further came in with a concentration at 24 h in “in vivo” (Aotus lemurinus lemurinus, po) of about 1200 nM. Besides, in “in vivo” (Aotus lemurinus lemurinus, po), the “plasma concentration within 1 h of the first dose” value was “approximately 6 µM”. Moreover, the half-life (in general, the time in which the quantity being followed falls by half) in “in vivo” (monkey) was 72 to 78 min; in “in vivo” (monkey, iv, 10 mg/kg), 78 min; in “in vivo” (monkey, po, 50 mg/kg), 72 min. For the same molecule, the Cmax (as a rule, the highest concentration seen after dosing) in the data set “in vivo” (monkey, po, 50 mg/kg) is at most 15 µM. For the same molecule, the Creatine is 0.55 mg/dL and 0.532 mg/dL in data set [3] (IV 10 mg/kg once a day/3 days, monkeys 21014 (c1-5), 21007 (c6-10), 22014 (c11-15), 22004 (c16-20), days -2, 6, 12, 18 (22004: 19), 79, 10 mg/kg, day 12); <0.5 mg/dL and 0.5 mg/dL in data set [3] (IV 10 mg/kg once a day/3 days, monkeys 21014 (c1-5), 21007 (c6-10), 22014 (c11-15), 22004 (c16-20), days -2, 6, 12, 18 (22004: 19), 79, 10 mg/kg, day -2); under 0.5 mg/dL in data set [3] (oral, three doses 50 mg/kg once a day/3 days, monkey 23029, days -2, 6, 12, 19, 79 = c11-c15). Besides, the “Blood Urea Nitrogen” value in data set [3] (oral, one dose 50 mg/kg, monkey 23015, days -2, 6, 12, 19, 79 = c1-c5, 50 mg/kg) is given as under 10.0 mg/dL.
